According to patent publication US10344025B2, “GLS1 inhibitors for treating disease” (Board of Regents, The University of Texas System, priority 2014, dated 2019):

How the values were obtained:
[1] = biological target: purified recombinant human GAC (GLS1) (Homo sapiens (Human), UniProt O94925); test: GLS1 Enzymatic Activity Assay (dual-coupled enzymatic assay, resorufin/Amplex UltraRed readout); type: biochemical;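 also: glutamate from GAC coupled via glutamate oxidase and peroxidase to resorufin, read as fluorescence (ex 530, em 590 nm) kinetically or at 20 min, four-parameter logistic IC50 fit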
A549 cells = test: Proliferation Assay (A549 viability, Cell Titer Fluor, 72 hours); type: cell-based; conditions: Homo sapiens
Method in brief: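 Cell Titer Fluor fluorescence after 72 h compound treatment (0.5% DMSO, 37 °C, 5% CO2) of A549 cells plated 24 h earlier at 1000/well. Four-parameter logistic fitting gave IC50.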

Chain of purified recombinant human GAC (GLS1) (O94925 other isoform, or with tags, fused parts or gaps): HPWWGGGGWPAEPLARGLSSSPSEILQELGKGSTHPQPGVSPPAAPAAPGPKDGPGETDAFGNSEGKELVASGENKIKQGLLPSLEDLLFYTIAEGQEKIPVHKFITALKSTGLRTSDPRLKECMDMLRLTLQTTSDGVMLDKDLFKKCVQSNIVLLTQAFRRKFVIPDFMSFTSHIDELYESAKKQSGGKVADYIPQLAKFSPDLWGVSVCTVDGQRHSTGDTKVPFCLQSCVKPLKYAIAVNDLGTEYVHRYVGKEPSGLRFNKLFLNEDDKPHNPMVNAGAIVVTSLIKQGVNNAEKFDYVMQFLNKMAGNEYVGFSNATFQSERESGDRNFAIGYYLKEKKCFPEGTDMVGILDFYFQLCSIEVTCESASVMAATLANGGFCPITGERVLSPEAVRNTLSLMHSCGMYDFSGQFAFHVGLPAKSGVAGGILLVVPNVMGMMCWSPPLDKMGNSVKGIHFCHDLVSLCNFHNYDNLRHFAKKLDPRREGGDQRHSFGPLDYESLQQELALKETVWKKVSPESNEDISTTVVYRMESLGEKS

Compound	IC50 [1]	EC50 (A549 cells; A549, 72 h)	EC50 (A549 cells)
Cc1ccc(CNC(=O)c2cn(CCCCn3cc(NC(=O)Cc4cc(Cl)ccc4F)nn3)nn2)cn1 [Example 388, 1-(4-{4-[2-(5-chloro-2-fluorophenyl)acetamido]-1H-1,2,3-triazol-1-yl}butyl)-N-[(6-methylpyridin-3-yl)methyl]-1H-1,2,3-triazole-4-carboxamide]	< 100 nM	100 to 500 nM	–
CC(C)CC(=O)NCc1cn(CCCCn2cc(C(=O)NCc3cccc(OC(F)(F)F)c3)nn2)nn1 [Example 55, l-(4-{4-[(3-methylbutanamido)methyl]-1H-1,2,3-triazol-1-yl}butyl)-N-{[3-(trifluoromethoxy)phenyl]methyl}-1H-1,2,3-triazole-4-carboxamide]	100 to 500 nM	500 to 5000 nM	–
O=C(CC1CCCCC1)Nc1cn(CCCCn2cc(C(=O)NCc3cccnc3)nn2)nn1 [Example 310, 1-{4-[4-(2-cyclohexylacetamido)-1H-1,2,3-triazol-1-yl]butyl}-N-(pyridin-3-ylmethyl)-1H-1,2,3-triazole-4-carboxamide]	< 100 nM	100 to 500 nM	–
CNC(=O)c1cn(CC(F)CCc2ccc(NC(=O)Cc3cc(OC4CCC4)ccn3)nn2)nn1 (stereo not shown) [Example 251, 1-(4-(6-(2-(4-cyclobutoxypyridin-2-yl)acetamido)pyridazin-3-yl)-2-fluorobutyl)-N-methyl-1H-1,2,3-triazole-4-carboxamide 2,2,2-trifluoroacetate]	< 100 nM	< 100 nM	–
O=C(NCc1cc(C(F)(F)F)ccn1)c1cn(CCCCn2cc(C(=O)NCc3cc(C(F)(F)F)ccn3)nn2)nn1 [Example 158, N-{[4-(trifluoromethyl)pyridin-2-yl]methyl}-1-{4-[4-({[4-(trifluoromethyl)pyridin-2-yl]methyl}carbamoyl)-1H-1,2,3-triazol-1-yl]butyl}-1H-1,2,3-triazole-4-carboxamide]	< 100 nM	< 100 nM	–
CNC(=O)c1cn(CC(F)CCc2nnc(C(=O)NCc3ccccc3)s2)nn1 (stereo not shown) [Example 563, N-benzyl-5-{3-fluoro-4-[4-(methylcarbamoyl)-1H-1,2,3-triazol-1-yl]butyl}-1,3,4-thiadiazole-2-carboxamide]	500 to 5000 nM	500 to 5000 nM	–
CNC(=O)c1cn(CCCCc2ccc(NC(=O)OC3CCCCC3)nn2)nn1 [Example 243, cyclohexyl (6-(4-(4-(methylcarbamoyl)-1H-1,2,3-triazol-1-yl)butyl)pyridazin-3-yl)carbamate]	100 to 500 nM	–	100 to 500 nM
O=C(Cc1cccc(OC(F)(F)F)c1)Nc1ccc(CCCCc2nnc(C(=O)NCCO)s2)nn1 [Example 37, N-(2-hydroxyethyl)-5-[4-(6-{2-[3-(trifluoromethoxy)phenyl]acetamido}pyridazin-3-yl)butyl]-1,3,4-thiadiazole-2-carboxamide]	< 100 nM	< 100 nM	–
CCNC(=O)c1cn(CCC(F)Cn2cc(C(=O)NCc3cc(C(F)(F)F)ccn3)nn2)nn1 (stereo not shown) [Example 154, N-ethyl-1-{3-fluoro-4-[4-({[4-(trifluoromethyl)pyridin-2-yl]methyl}carbamoyl)-1H-1,2,3-triazol-1-yl]butyl}-1H-1,2,3-triazole-4-carboxamide]	500 to 5000 nM	500 to 5000 nM	–
C[C@@H](NC(=O)c1cn(CCCCn2cc(C(=O)NCc3cc(C(F)(F)F)ccn3)nn2)nn1)c1ccccc1 [Example 98, 1-[4-(4-{[(1R)-1-phenylethyl]carbamoyl}-1H-1,2,3-triazol-1-yl)butyl]-N-{[4-(trifluoromethyl)pyridin-2-yl]methyl}-1H-1,2,3-triazole-4-carboxamide]	500 to 5000 nM	500 to 5000 nM	–
O=C(NCc1cccc(OC(F)(F)F)c1)c1cn(CCCCn2cc(C(=O)NCc3cc(C(F)(F)F)ccn3)nn2)nn1 [Example 83, N-{[3-(trifluoromethoxy)phenyl]methyl}-1-{4-[4-({[4-(trifluoromethyl)pyridin-2-yl]methyl}carbamoyl)-1H-1,2,3-triazol-1-yl]butyl}-1H-1,2,3-triazole-4-carboxamide]	< 100 nM	< 100 nM	–
CNC(=O)c1cn(CCCCc2ccc(NC(=O)Cc3cccc(-c4ccccn4)c3)nn2)nn1 [Example 545, N-methyl-1-[4-(6-{2-[3-(pyridin-2-yl)phenyl]acetamido}pyridazin-3-yl)butyl]-1H-1,2,3-triazole-4-carboxamide]	< 100 nM	100 to 500 nM	–
CNC(=O)c1nnc(CCCCc2ccc(NC(=O)Cc3cncc(-c4cccc(OC(F)(F)F)c4)c3)nn2)s1 [Example 216, N-methyl-5-(4-(6-(2-(5-(3-(trifluoromethoxy)phenyl)pyridin-3-yl)acetamido)pyridazin-3-yl)butyl)-1,3,4-thiadiazole-2-carboxamide]	< 100 nM	< 100 nM	–
O=C(NCc1cccc(OC(F)(F)F)c1)c1cn(CCCCc2nnc(C(=O)NCc3cccc(OC(F)(F)F)c3)s2)nn1 [Example 46, N-{[3-(trifluoromethoxy)phenyl]methyl}-5-{4-[4-({[3-(trifluoromethoxy)phenyl]methyl}carbamoyl)-1H-1,2,3-triazol-1-yl]butyl}-1,3,4-thiadiazole-2-carboxamide]	< 100 nM	< 100 nM	–
CNC(=O)c1cn(CCC(F)Cn2cc(C(=O)NCc3ccc(C(F)(F)F)cn3)nn2)nn1 (stereo not shown) [Example 184, 1-{3-fluoro-4-[4-({[5-(trifluoromethyl)pyridin-2-yl]methyl}carbamoyl)-1H-1,2,3-triazol-1-yl]butyl}-N-methyl-1H-1,2,3-triazole-4-carboxamide]	500 to 5000 nM	> 5000 nM	–
CC(C)(NC(=O)c1cn(CCCCc2nnc(NC(=O)Cc3cccc(OC(F)(F)F)c3)s2)nn1)c1ccccc1 [Example 18, N-(2-phenylpropan-2-yl)-1-[4-(5-{2-[3-(trifluoromethoxy)phenyl]acetamido}-1,3,4-thiadiazol-2-yl)butyl]-1H-1,2,3-triazole-4-carboxamide]	100 to 500 nM	100 to 500 nM	–
O=C(NCc1cccc(OC(F)(F)F)c1)c1cn(CCCCn2cc(C(=O)NCC3CCCOC3)nn2)nn1 (stereo not shown) [Example 117, N-(oxan-3-ylmethyl)-1-{4-[4-({[3-(trifluoromethoxy)phenyl]methyl}carbamoyl)-1H-1,2,3-triazol-1-yl]butyl}-1H-1,2,3-triazole-4-carboxamide]	100 to 500 nM	100 to 500 nM	–

The next lines start with results.

IC50 [1]	EC50 (A549 cells; A549, 72 h)	Compound	EC50 (A549 cells)
< 100 nM	< 100 nM	O=C(Cc1cccc(OC(F)(F)F)c1)Nc1nnc(CCCCn2cc(C(=O)NCc3ccccn3)nn2)s1 [Example 19, N-(pyridin-2-ylmethyl)-1-[4-(5-{2-[3-(trifluoromethoxy)phenyl]acetamido}-1,3,4-thiadiazol-2-yl)butyl]-1H-1,2,3-triazole-4-carboxamide]	–
< 100 nM	< 100 nM	O=C(NCc1cc(OC(F)(F)F)ccc1F)c1cn(CC(F)CCc2nnc(NC(=O)C3CCCCO3)s2)nn1 (stereo not shown) [Example 574, 1-(2-fluoro-4-(5-(tetrahydro-2H-pyran-2-carboxamido)-1,3,4-thiadiazol-2-yl)butyl)-N-(2-fluoro-5-(trifluoromethoxy)benzyl)-1H-1,2,3-triazole-4-carboxamide]	–
< 100 nM	< 100 nM	O=C(NCc1cccc(OC(F)(F)F)c1)c1cn(CC(F)CCc2nnc(C(=O)NCc3ccc(C(F)(F)F)cn3)s2)nn1 (stereo not shown) [Example 464, 5-{3-fluoro-4-[4-({[3-(trifluoromethoxy)phenyl]methyl}carbamoyl)-1H-1,2,3-triazol-1-yl]butyl}-N-{[5-(trifluoromethyl)pyridin-2-yl]methyl}-1,3,4-thiadiazole-2-carboxamide]	–
< 100 nM	< 100 nM	CC(=O)Nc1ccc(CCCCc2nnc(C(=O)NCc3cc(OC(F)(F)F)ccc3F)s2)nn1 [Example 600, 5-(4-(6-acetamidopyridazin-3-yl)butyl)-N-(2-fluoro-5-(trifluoromethoxy)benzyl)-1,3,4-thiadiazole-2-carboxamide]	–
100 to 500 nM	100 to 500 nM	NC(=O)c1cn(CCCCc2nnc(NC(=O)Cc3cccc(OC(F)(F)F)c3)s2)nn1 [Example 3, 1-(4-(5-(2-(3-(Trifluoromethoxy)phenyl)acetamido)-1,3,4-thiadiazol-2-yl)butyl)-1H-1,2,3-triazole-4-carboxamide]	–
< 100 nM	< 100 nM	O=C(Cc1ccccn1)Nc1cn(CC(F)CCn2cc(C(=O)NCc3cc(OC(F)(F)F)ccc3F)nn2)nn1 (stereo not shown) [Example 363, 1-(3-fluoro-4-{4-[2-(pyridin-2-yl)acetamido]-1H-1,2,3-triazol-1-yl}butyl)-N-{[2-fluoro-5-(trifluoromethoxy)phenyl]methyl}-1H-1,2,3-triazole-4-carboxamide]	–
< 100 nM	< 100 nM	O=C(Cc1ccccn1)Nc1nnc(CCC(F)Cn2cc(C(=O)NCc3cc(OC(F)(F)F)ccc3F)nn2)s1 (stereo not shown) [Example 514, 1-(2-fluoro-4-{5-[2-(pyridin-2-yl)acetamido]-1,3,4-thiadiazol-2-yl}butyl)-N-{[2-fluoro-5-(trifluoromethoxy)phenyl]methyl}-1H-1,2,3-triazole-4-carboxamide]	–
< 100 nM	< 100 nM	O=C(Cc1cc(C2CC2)ccn1)Nc1nnc(CCC(F)Cn2cc(C(=O)NCc3cncc(C(F)(F)F)c3)nn2)s1 (stereo not shown) [Example 580, 1-(4-(5-(2-(4-cyclopropylpyridin-2-yl)acetamido)-1,3,4-thiadiazol-2-yl)-2-fluorobutyl)-N-((5-(trifluoromethyl)pyridin-3-yl)methyl)-1H-1,2,3-triazole-4-carboxamide]	–
< 100 nM	< 100 nM	O=C(Cc1cc(Cl)ccc1F)Nc1cn(CCCCn2cc(C(=O)NCc3cc(OC(F)(F)F)ccc3F)nn2)nn1 [Example 386, 1-(4-{4-[2-(5-chloro-2-fluorophenyl)acetamido]-1H-1,2,3-triazol-1-yl}butyl)-N-{[2-fluoro-5-(trifluoromethoxy)phenyl]methyl}-1H-1,2,3-triazole-4-carboxamide]	–
